Experimental data taken from US20250161319A1, “USE OF HPK1 INHIBITOR IN TREATMENT OF INTERFERON-RELATED DISEASES” (priority 2022, published 2025).

Key:
HPK1 [1] = target: T1, HPK1 (Homo sapiens (Human), UniProt Q92918); test: Inhibition of HPK1 kinase activity in vitro (ADP-Glo), compounds of Formula I-1; type: biochemical; settings: MBP substrate
Description: The starting concentration for all tested compounds was 10 μM, and diluted in three-fold concentration gradient for a total of 10 concentration points in duplicate.
Before the experiment, 50 μM DTT and the enzymatic reaction system buffer were prepared.
The compound dilution was transferred into 384-well plate by using a pipette, afterwards, the 384-well plate was sealed and centrifuged at 1000 g for 1 min. 2-fold concentration of HPK1 solution was prepared in the kinase buffer, and then 2.5 μL of the prepared 2-fold concentration of HPK1 solution was added into the 384 wells, centrifuged at 1000 g for 30 s, and incubated for 10 min at room temperature. A mixture of 2-fold concentration of MBP and ATP was prepare in the kinase buffer, and […] of prepared mixture of 2-fold concentration of MBP and ATP was added into the above reaction system for the reaction, centrifuged at 1000 g for 30 s, and then incubated at room temperature for 1 h, 5 μL of ADP-Glo reagent was added into the reaction system, and incubated at room temperature for 40 min. 10 μL of kinase detection reagent was added and incubated at room temperature for 40 min.
In the above formula, cmpd refers to the tested compound, PC refers to the positive control, and VC refers to the negative control.

GCK = GCK (Homo sapiens (Human), UniProt Q12851); test: In vitro enzyme activity, ADP-Glo method (Example 3); type: biochemical; settings: recombinant protein, read-out: GCK inhibiting activity level (IC50)
Chain of GCK (Q12851 whole entry): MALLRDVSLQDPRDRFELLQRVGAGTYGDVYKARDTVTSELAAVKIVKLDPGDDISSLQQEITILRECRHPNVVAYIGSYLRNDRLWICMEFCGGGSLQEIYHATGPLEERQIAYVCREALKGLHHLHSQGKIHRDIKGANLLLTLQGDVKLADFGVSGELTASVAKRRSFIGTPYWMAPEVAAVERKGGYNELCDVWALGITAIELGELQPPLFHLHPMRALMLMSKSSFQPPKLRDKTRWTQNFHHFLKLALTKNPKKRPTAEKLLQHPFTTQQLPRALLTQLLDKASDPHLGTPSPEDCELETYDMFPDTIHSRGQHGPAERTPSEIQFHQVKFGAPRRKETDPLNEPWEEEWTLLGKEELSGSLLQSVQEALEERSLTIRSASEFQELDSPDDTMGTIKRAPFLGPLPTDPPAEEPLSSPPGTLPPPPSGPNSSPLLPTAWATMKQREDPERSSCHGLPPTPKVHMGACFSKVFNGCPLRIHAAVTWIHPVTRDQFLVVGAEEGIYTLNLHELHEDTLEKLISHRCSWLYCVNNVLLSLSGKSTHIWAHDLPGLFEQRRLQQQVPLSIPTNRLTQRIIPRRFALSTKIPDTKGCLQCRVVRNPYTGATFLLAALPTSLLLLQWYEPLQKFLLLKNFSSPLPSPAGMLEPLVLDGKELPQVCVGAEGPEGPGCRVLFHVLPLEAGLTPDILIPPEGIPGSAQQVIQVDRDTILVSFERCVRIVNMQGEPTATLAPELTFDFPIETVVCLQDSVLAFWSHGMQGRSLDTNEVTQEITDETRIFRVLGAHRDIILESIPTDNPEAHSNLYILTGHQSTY
Description: (§1) ADP-Glo™ Kinase Assay is a luminescent ADP assay that provides a versatile, homogeneous, high-throughput screening method to measure kinase activity by quantifying the amount of ADP produced during the kinase reaction. The assay was performed in two steps; first, after the kinase reaction, an equal volume of ADP-Glo™ Reagent was added to quench the kinase reaction and consume the remaining ATP. Second, the Kinase Assay Reagent was added to concurrently convert ADP to ATP and allow measurement of newly synthesized ATP using the luciferase/luciferin reaction. The light produced was measured using a photometer. Luminescence can be correlated with ADP concentration by using an ATP to ADP conversion curve. […] Meanwhile, better selectivity was shown on kinases with closer homology such as GCK/TNIK/PDK1.

PDK1 = PDK1 (Homo sapiens (Human), UniProt O15530); test: as above; type: biochemical; settings: recombinant protein, read-out: PDK1 inhibiting activity level (IC50)
Chain of PDK1 (O15530 whole entry): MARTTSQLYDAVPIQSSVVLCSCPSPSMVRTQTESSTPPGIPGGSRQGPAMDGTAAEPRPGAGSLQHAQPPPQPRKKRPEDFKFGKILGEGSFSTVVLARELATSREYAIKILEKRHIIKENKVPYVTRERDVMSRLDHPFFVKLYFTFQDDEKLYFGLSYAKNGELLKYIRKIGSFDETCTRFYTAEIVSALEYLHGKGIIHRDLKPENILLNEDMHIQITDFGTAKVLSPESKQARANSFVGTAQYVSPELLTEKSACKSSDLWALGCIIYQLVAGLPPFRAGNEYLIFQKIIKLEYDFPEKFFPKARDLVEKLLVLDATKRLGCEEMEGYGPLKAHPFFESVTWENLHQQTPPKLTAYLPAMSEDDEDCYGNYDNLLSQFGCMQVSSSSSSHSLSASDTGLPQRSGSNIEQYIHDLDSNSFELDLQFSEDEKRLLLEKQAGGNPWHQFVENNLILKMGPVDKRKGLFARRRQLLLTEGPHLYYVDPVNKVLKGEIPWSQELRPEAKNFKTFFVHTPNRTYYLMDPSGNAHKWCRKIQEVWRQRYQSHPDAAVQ
Description: as §1

HPK1 [2] = target: T1, HPK1; test: as above; type: biochemical; settings: recombinant protein, read-out: HPK1 inhibiting activity level (IC50)
Description: as §1

TNIK = TNIK (Homo sapiens (Human), UniProt Q9UKE5); test: as above; type: biochemical; settings: recombinant protein, read-out: TNIK inhibiting activity level (IC50)
Chain of TNIK (Q9UKE5 whole entry, species assumed): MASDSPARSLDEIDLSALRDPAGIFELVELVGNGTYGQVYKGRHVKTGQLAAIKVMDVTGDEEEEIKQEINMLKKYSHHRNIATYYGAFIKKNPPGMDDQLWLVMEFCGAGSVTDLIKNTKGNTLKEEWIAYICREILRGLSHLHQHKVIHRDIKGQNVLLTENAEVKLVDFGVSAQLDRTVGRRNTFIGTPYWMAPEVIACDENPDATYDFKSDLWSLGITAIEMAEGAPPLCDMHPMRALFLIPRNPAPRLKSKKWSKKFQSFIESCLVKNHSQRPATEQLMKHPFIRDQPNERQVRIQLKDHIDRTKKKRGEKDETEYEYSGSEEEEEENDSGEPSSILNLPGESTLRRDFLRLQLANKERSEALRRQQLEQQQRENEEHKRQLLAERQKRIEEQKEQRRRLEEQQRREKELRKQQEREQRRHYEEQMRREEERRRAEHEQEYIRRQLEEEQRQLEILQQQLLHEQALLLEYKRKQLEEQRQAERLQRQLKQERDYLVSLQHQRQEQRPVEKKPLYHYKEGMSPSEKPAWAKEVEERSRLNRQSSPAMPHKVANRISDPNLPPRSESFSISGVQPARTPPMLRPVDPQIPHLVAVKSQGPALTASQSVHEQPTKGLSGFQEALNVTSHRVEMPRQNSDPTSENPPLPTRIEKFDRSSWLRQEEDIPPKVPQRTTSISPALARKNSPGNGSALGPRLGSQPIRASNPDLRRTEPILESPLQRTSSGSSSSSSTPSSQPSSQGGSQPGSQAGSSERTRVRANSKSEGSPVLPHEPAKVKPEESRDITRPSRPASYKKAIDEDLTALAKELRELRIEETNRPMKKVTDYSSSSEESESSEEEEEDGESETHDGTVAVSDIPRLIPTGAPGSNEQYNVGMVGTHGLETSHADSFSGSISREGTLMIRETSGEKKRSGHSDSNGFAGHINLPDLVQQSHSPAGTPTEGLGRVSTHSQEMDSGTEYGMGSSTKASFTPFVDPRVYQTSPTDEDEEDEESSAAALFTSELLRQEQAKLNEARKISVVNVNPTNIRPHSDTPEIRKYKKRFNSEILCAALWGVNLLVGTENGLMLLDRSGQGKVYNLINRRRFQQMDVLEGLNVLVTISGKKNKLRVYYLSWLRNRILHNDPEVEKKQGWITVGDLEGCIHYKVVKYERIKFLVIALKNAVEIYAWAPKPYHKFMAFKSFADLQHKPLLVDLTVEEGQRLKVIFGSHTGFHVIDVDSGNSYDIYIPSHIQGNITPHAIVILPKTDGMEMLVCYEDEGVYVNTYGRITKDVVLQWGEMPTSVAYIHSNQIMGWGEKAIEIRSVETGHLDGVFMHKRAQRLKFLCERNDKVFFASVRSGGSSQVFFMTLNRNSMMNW
Description: as §1

[3] = Oral maximum tolerated dose / oral acute toxicity test in mice; type: in vivo; settings: for Death, Female mice / Death, Male mice: P.O.
Excerpt: The inventors tested representative compounds for oral maximum tolerated dose in mice.

T1 sequence (Q92918 whole entry): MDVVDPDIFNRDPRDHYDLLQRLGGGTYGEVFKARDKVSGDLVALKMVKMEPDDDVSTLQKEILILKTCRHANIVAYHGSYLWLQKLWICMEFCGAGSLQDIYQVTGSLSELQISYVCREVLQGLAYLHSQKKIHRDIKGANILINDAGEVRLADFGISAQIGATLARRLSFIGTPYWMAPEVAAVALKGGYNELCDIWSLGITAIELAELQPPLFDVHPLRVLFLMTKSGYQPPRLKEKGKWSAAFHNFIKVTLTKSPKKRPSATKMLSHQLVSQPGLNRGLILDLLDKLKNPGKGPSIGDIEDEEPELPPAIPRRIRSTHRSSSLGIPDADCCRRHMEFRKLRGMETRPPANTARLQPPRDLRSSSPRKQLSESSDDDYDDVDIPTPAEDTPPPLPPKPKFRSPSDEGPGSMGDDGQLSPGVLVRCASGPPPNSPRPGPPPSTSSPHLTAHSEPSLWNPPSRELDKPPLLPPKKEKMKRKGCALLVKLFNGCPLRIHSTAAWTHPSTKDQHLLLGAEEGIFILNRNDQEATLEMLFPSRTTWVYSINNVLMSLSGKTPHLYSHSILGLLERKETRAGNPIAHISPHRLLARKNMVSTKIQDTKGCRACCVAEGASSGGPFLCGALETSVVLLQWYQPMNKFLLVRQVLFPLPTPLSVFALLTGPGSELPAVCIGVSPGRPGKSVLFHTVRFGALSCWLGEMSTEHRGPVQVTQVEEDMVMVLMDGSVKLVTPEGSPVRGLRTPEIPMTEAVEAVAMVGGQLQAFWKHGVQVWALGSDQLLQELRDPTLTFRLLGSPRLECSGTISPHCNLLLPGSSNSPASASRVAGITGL

Molecule	IC50 (HPK1 [1])	IC50 (GCK)	IC50 (PDK1)	IC50 (HPK1 [2])	IC50 (TNIK)	other results
NS(=O)(=O)c1ccc(Nc2ncc3cccc(OC4CCC(O)C4)c3n2)cc1 (centres unmarked) [Example 9, 4-((8-((3-hydroxycyclopentyl)oxo)quinazolin-2-yl)amino)benzenesulfonamide]	< 300 nM	–	–	–	–	–
Cn1cccc1-c1cc2cc(NC(=O)C3C[C@@H]3F)ncc2c(N)c1F (some centres unmarked) [Compound C6]	–	10 to 100 nM	> 1000 nM	≤ 10 nM	10 to 100 nM	–
4-((2-((4-((2-(dimethylamino)ethyl)(methyl)amino)phenyl)amino)quinazolin-8-yl)oxo)cyclohexan-1-ol [Example 2]	< 50 nM	–	–	–	–	–
CN1CCC(NC(=O)c2ccc(Nc3ncc4cccc(OC5CCC(O)CC5)c4n3)cc2)CC1 (centres unmarked) [Example 8, 4-((8-((4-hydroxycyclohexyl)oxo)quinazolin-2-yl)amino)-N-(1-methylpiperidin-4-yl)benzamide]	< 50 nM	–	–	–	–	–
NS(=O)(=O)c1cccc(Nc2ncc3cccc(OC4CCC(O)CC4)c3n2)c1 (centres unmarked) [Example 10, 3-((8-((4-hydroxycyclohexyl)oxo)quinazolin-2-yl)amino)benzenesulfonamide]	> 300 nM	–	–	–	–	–
CN1CCN(c2ccc(Nc3ncc4cccc(OC5CCC(O)C5)c4n3)cc2)CC1 (centres unmarked) [Example 6]	< 100 nM	–	–	–	–	–
CN1CCN(c2ccc(Nc3ncc4cccc(O[C@H]5CC[C@H](O)CC5)c4n3)cc2)CC1 [Compound C3]	–	10 to 100 nM	> 1000 nM	10 to 100 nM	10 to 100 nM	Death, Female mice ([3]; 225 mg/kg): 0/5; Death, Male mice ([3]; 225 mg/kg): 0/5; Death, Female mice ([3]; 337.5 mg/kg): 2/5; Death, Male mice ([3]; 337.5 mg/kg): 1/5; Death, Female mice ([3]; 506.3 mg/kg): 2/5; Death, Male mice ([3]; 506.3 mg/kg): 3/5; Death, Female mice ([3]; 759.4 mg/kg): 5/5; Death, Male mice ([3]; 759.4 mg/kg): 3/5; Death, Female mice ([3]; 1139.1 mg/kg): 5/5; Death, Male mice ([3]; 1139.1 mg/kg): 5/5; MTD ([3]; mouse, in vivo, po, mice, single dose): 225 mg/kg
CN1CCC(n2cc(Nc3ncc4cccc(OC5CCC(O)CC5)c4n3)cn2)CC1 (centres unmarked) [Example 3, 4-((2-((1-(1-methylpiperidin-4-yl)-1H-pyrazol-4-yl)amino)quinazolin-8-yl)oxo)cyclohexan-1-ol]	< 50 nM	–	–	–	–	–

Further lines, with some results ahead:

IC50 (HPK1 [1])	IC50 (GCK)	IC50 (PDK1)	IC50 (HPK1 [2])	IC50 (TNIK)	Molecule	other results
–	≤ 10 nM	> 1000 nM	≤ 10 nM	10 to 100 nM	Cn1cccc1-c1cc2cc(NC(=O)C3C[C@H]3F)ncc2c(N)c1F (some centres unmarked) [Compound C5]	–
–	10 to 100 nM	> 1000 nM	10 to 100 nM	10 to 100 nM	CN1CCN(c2ccc(Nc3ncc4cccc(O[C@H]5CC[C@@H](O)CC5)c4n3)cc2)CC1 [Compound C4]	–
< 200 nM	–	–	–	–	COCCOc1cccc2cnc(Nc3ccc(N4CCN(C)CC4)cc3)nc12 [Example 5, 8-(2-methoxyethoxy)-N-(4-(4-methylpiperazin-1-yl)phenyl)quinazolin-2-amine]	–
< 50 nM	–	–	–	–	CN1CCC(n2cc(Nc3ncc4cccc(O[C@H]5CC[C@@H](N)CC5)c4n3)cn2)CC1 [Example 1, 8-(((1s,4s)-4-aminocyclohexyl)oxo)-N-(1-(1-methylpiperidin-4-yl)-1H-pyrazol-4-yl)quinazolin-2-amine]	–
< 50 nM	–	–	–	–	CN1CCN(c2ccc(Nc3ncc4cccc(OC5CCC(O)CC5)c4n3)cc2)CC1 (centres unmarked) [Example 4]	–
–	10 to 100 nM	100 to 1000 nM	≤ 10 nM	100 to 1000 nM	CN1CCC(n2cc(Nc3ncc4cccc(O[C@H]5CC[C@@H](N)CC5)c4n3)cn2)CC1 [Compound C2]	–
< 300 nM	–	–	–	–	CN1CCN(c2ccc(Nc3ncc4cccc(OC5CCC(O)CC5)c4n3)nc2)CC1 (centres unmarked) [Example 7, 4-((2-((5-(4-methylpiperazin-1-yl)pyridin-2-yl)amino)quinazolin-8-yl)oxo)cyclohexan-1-ol]	–
